Experimental data published in article PMC9501129 (Pharmaceutics, 2022).
Read-outs that look alike come from different tables or passages of the source.

Columns and labels:
pregnant rats = conditions: cited from earlier work
[1] = ex-vivo dually perfused human cotyledon; cited from earlier work
[2] = Amniotic fluid drug concentration in mouse pregnancy model (HPLC-MSMS); type: in vivo, C57BL/6J mice; conditions: pregnant mice; for Kp at 1 h / concentration at 1 h: female, C57BL/6J, mouse, oral; for Kp at 1 h: amniotic fluid / maternal plasma; for concentration at 1 h: amniotic fluid
Description: All animal experiments were approved by the University Health Network Animal Use Committee (protocol #2575) and performed according to the policies and guidelines of the Canadian Council on Animal Care. C57BL/6J mice bred in-house (original breeders from Jackson Laboratory RRID:IMSR JAX:000664) were maintained under a 12-h light/dark cycle, with ad libitum access to food and water. Animals were acclimated to their surroundings for 1 week prior to experiment initiation. Males were isolated for 7 days prior to mating. Female mice (7–12 weeks of age) were mated with males at a ratio of 2:1. Presence of vaginal plug was denoted as gestational day 0.5 (GD0.5). Pregnancy was confirmed by weight gain of >1.5 g on GD9.5 and >3 g on GD13.5. […] The equivalent mouse mg/kg dose was calculated based on the human dose divided by an assumed average human weight of 60 kg. […] On GD15.5, mice underwent saphenous bleed 24 h after the GD14.5 dose administration (trough). Immediately after the saphenous bleed, mice were dosed with the appropriate drug regimen and sacrificed 1 h post-treatment (peak), at which time blood was collected by cardiac puncture and amniotic fluid was collected by dissecting the uterus, puncturing the amniotic sac, and draining the amniotic fluid into a sterile dish. Amniotic fluid was pooled for the entire litter. Samples from 2 dams per arm were analyzed for drug levels.
Briefly, 50 μL of plasma or amniotic fluid was spiked with internal standard (ritonavir-d6) followed by protein precipitation with acetonitrile and filtration. Filtrates were diluted 1:9 with ammonium acetate buffer (10 mM) and analyzed by the HPLC-MSMS system, consisting of a Shimadzu Nexera XR high-performance liquid chromatograph (Shimadzu, Columbia, MD, USA) coupled with a SCIEX API 4500 QqQ mass spectrometer (SCIEX, Concord, ON, Canada). Chromatographic separation by Mobile Phase A (10% methanol, 5% 50 mM ammonium acetate, 85% 0.25% acetic acid pH 3.6 ± 0.2) and Mobile Phase B (90% methanol, 5% 50 mM ammonium acetate, 5% 0.25% acetic acid pH 6.6 ± 0.2) was performed under linear gradient conditions (flow rate 0.7 mL/min) on a reverse-phase Zorbax XDB-C18 column (Agilent Technologies, Santa Clara, CA, USA) maintained at 40 °C. […] HPLC-MSMS data were acquired using Analyst (v 1.6.3, SCIEX, Concord, ON, Canada) and analyzed with MultiQuant software (v 3.0.3, SCIEX, Concord, ON, Canada). […] Positive controls spiked in-house and prepared by an external laboratory during a sample exchange program were included in all runs.

pregnant rabbits = conditions: CAB orally 0, 30, 500, or 2000 mg/kg/day, gestational day 7 to 19; cited from earlier work
[3] = cited from earlier work
[4] = CAB 5 mg/kg (10×) oral gavage once daily GD11.5-GD15.5 with TDF 50 mg/kg + FTC 33.3 mg/kg, mean (SD), n=2
[5] = ART-naïve, Switch study, ART-experienced, virologically suppressed, CAB/rilpivirin LA every 4 weeks, initial injection 600 mg IM
[6] = ART-naïve, Switch study, ART-experienced, virologically suppressed, CAB/rilpivirin LA every 4 weeks, oral 30 mg once daily
[7] = Healthy Participants (Females), 30 mg oral phase, 600 mg LA CAB every 12 weeks, 1st injection
[8] = Healthy Participants (Females), 30 mg oral phase, 600 mg LA CAB every 12 weeks, 2nd injection
[9] = Healthy Participants (Females), 30 mg oral phase, 600 mg LA CAB every 12 weeks, 3rd injection
[10] = Healthy Participants (Females), 30 mg oral phase, 600 mg LA CAB every 12 weeks, 4th injection
[11] = Healthy Participants (Females), 30 mg oral phase, 600 mg LA CAB every 12 weeks, 5th injection
[12] = Healthy Participants (Females), 30 mg oral phase, 800 mg LA CAB every 12 weeks, 1st injection
[13] = Healthy Participants (Females), 30 mg oral phase, 800 mg LA CAB every 12 weeks, 2nd injection
[14] = Healthy Participants (Females), 30 mg oral phase, 800 mg LA CAB every 12 weeks, 3rd injection
[15] = Healthy Participants (Males), 30 mg oral phase, 600 mg LA CAB every 12 weeks, 1st injection
[16] = Healthy Participants (Males), 30 mg oral phase, 600 mg LA CAB every 12 weeks, 2nd injection
[17] = Healthy Participants (Males), 30 mg oral phase, 600 mg LA CAB every 12 weeks, 3rd injection
[18] = Healthy Participants (Males), 30 mg oral phase, 600 mg LA CAB every 12 weeks, 4th injection
[19] = Healthy Participants (Males), 30 mg oral phase, 600 mg LA CAB every 12 weeks, 5th injection
[20] = Healthy Participants (Males), 30 mg oral phase, 800 mg LA CAB every 12 weeks, 1st injection, ref 28
[21] = Healthy Participants (Males), 30 mg oral phase, 800 mg LA CAB every 12 weeks, 1st injection, ref 29
[22] = Healthy Participants (Males), 30 mg oral phase, 800 mg LA CAB every 12 weeks, 2nd injection, ref 28
[23] = Healthy Participants (Males), 30 mg oral phase, 800 mg LA CAB every 12 weeks, 2nd injection, ref 29
[24] = Healthy Participants (Males), 30 mg oral phase, 800 mg LA CAB every 12 weeks, 3rd injection, ref 28
[25] = Healthy Participants (Males), 30 mg oral phase, 800 mg LA CAB every 12 weeks, 3rd injection, ref 29
[26] = Healthy Participants, oral lead-in followed by LA CAB IM or SC injection: 30 mg, with Rilpivirine LA IM monthly
[27] = Healthy Participants, oral lead-in followed by LA CAB injection: 200 mg IM, with Rilpivirine LA IM monthly
[28] = Healthy Participants, oral lead-in followed by LA CAB injection: 200 mg SC, with Rilpivirine LA IM monthly
[29] = Healthy Participants, oral lead-in followed by LA CAB injection: 400 mg IM, with Rilpivirine LA IM monthly
[30] = Healthy Participants, oral lead-in followed by LA CAB injection: 800 mg IM, with Rilpivirine LA IM monthly
[31] = Healthy Participants, repeat oral dose 5 mg
[32] = Healthy Participants, repeat oral dose 10 mg
[33] = Healthy Participants, repeat oral dose 25 mg
[34] = Healthy Participants, single oral dose 5 mg
[35] = Healthy Participants, single oral dose 10 mg
[36] = Healthy Participants, single oral dose 25 mg
[37] = Healthy Participants, single oral dose 50 mg
[38] = Participants with HIV, repeat oral dose 30 mg
[39] = Participants with HIV, single oral dose 5 mg

## C[C@H]1CO[C@@H]2Cn3cc(C(=O)NCc4ccc(F)cc4F)c(=O)c(O)c3C(=O)N12 [CAB, cabotegravir]
Pregnant rats; CAB orally 1000 mg/kg/day, gestational day 6 to lactation day 21
  Reproductive toxicity findings: delayed onset of parturition, increased number of stillbirths, and increased number of neonatal deaths at lactation day 4
Pregnant rats; rats, 1000 mg/kg/day
  CAB exposure relative to the recommended human dose: 28 times
[1]
  Concentration in the fetal compartment: 48 ng/mL
  Concentration in the maternal compartment: 550 ng/mL
  Maternal-to-fetal ratio: 10%
  Placental transfer: low placental transfer
[2]; 1× to 10× CAB, 1 h after dosing, read-out: Ratio of drug in the amniotic fluid to that in maternal plasma
  Kp at 1 h: 0.034 to 0.055
[2]; CAB 0.5 mg/kg (1×) oral gavage once daily GD11.5-GD15.5 with TDF 50 mg/kg + FTC 33.3 mg/kg, mean (SD), n=2, read-out: Amniotic: Maternal Plasma Ratio 1 h
  Kp at 1 h: 0.05
[2]; CAB 1.5 mg/kg (3×) oral gavage once daily GD11.5-GD15.5 with TDF 50 mg/kg + FTC 33.3 mg/kg, mean (SD), n=2, read-out: Amniotic: Maternal Plasma Ratio 1 h
  Kp at 1 h: 0.055
[2]; CAB 5 mg/kg (10×) oral gavage once daily GD11.5-GD15.5 with TDF 50 mg/kg + FTC 33.3 mg/kg, mean (SD), n=2, read-out: Amniotic: Maternal Plasma Ratio 1 h
  Kp at 1 h: 0.034
[2]; CAB 0.5 mg/kg (1×) oral gavage once daily GD11.5-GD15.5 with TDF 50 mg/kg + FTC 33.3 mg/kg, mean (SD), n=2
  concentration at 1 h: 44.9 ng/mL
[2]; CAB 1.5 mg/kg (3×) oral gavage once daily GD11.5-GD15.5 with TDF 50 mg/kg + FTC 33.3 mg/kg, mean (SD), n=2
  concentration at 1 h: 59.9 ng/mL
[2]; [4]
  concentration at 1 h: 112 ng/mL
  Amniotic Fluid 1 h: 112.4 (33.6) ng/mL
Pregnant rabbits
  Fetal toxicities: no drug-related fetal toxicities
[3]; [5]
  Human Plasma Levels Cmax: 8000 ng/mL
  Human Plasma Levels Cmin: 1500 ng/mL
[3]; ART-naïve, Switch study, ART-experienced, virologically suppressed, CAB/rilpivirin LA every 4 weeks, monthly injection 400 mg IM
  Human Plasma Levels Cmin: 2800 ng/mL
[3]; [6]
  Human Plasma Levels Cmax: 8000 ng/mL
  Human Plasma Levels Cmin: 4600 ng/mL
[3]; [7]
  Human Plasma Levels Cmax: 1580 ng/mL
  Human Plasma Levels Cmin: 1330 ng/mL
[3]; [8]
  Human Plasma Levels Cmax: 2960 ng/mL
  Human Plasma Levels Cmin: 1820 ng/mL
[3]; [9]
  Human Plasma Levels Cmax: 3460 ng/mL
  Human Plasma Levels Cmin: 2040 ng/mL
[3]; [10]
  Human Plasma Levels Cmax: 3330 ng/mL
  Human Plasma Levels Cmin: 2060 ng/mL
[3]; [11]
  Human Plasma Levels Cmax: 3660 ng/mL
  Human Plasma Levels Cmin: 2030 ng/mL
[3]; [12]
  Human Plasma Levels Cmax: 1890 ng/mL
  Human Plasma Levels Cmin: 950 ng/mL
[3]; [13]
  Human Plasma Levels Cmax: 2290 ng/mL
  Human Plasma Levels Cmin: 1350 ng/mL
[3]; [14]
  Human Plasma Levels Cmax: 3010 ng/mL
  Human Plasma Levels Cmin: 1650 ng/mL
[3]; [15]
  Human Plasma Levels Cmax: 2510 ng/mL
  Human Plasma Levels Cmin: 1790 ng/mL
[3]; [16]
  Human Plasma Levels Cmax: 3900 ng/mL
  Human Plasma Levels Cmin: 1290 ng/mL
[3]; [17]
  Human Plasma Levels Cmax: 2960 ng/mL
  Human Plasma Levels Cmin: 1110 ng/mL
[3]; [18]
  Human Plasma Levels Cmax: 2960 ng/mL
  Human Plasma Levels Cmin: 1460 ng/mL
[3]; [19]
  Human Plasma Levels Cmax: 3820 ng/mL
  Human Plasma Levels Cmin: 1680 ng/mL
[3]; [20]
  Human Plasma Levels Cmax: 4260 ng/mL
  Human Plasma Levels Cmin: 302 ng/mL
[3]; [21]
  Human Plasma Levels Cmax: 2670 ng/mL
  Human Plasma Levels Cmin: 490 ng/mL
[3]; [22]
  Human Plasma Levels Cmax: 5220 ng/mL
  Human Plasma Levels Cmin: 331 ng/mL
[3]; [23]
  Human Plasma Levels Cmax: 2570 ng/mL
  Human Plasma Levels Cmin: 780 ng/mL
[3]; [24]
  Human Plasma Levels Cmax: 4910 ng/mL
  Human Plasma Levels Cmin: 387 ng/mL
[3]; [25]
  Human Plasma Levels Cmax: 3390 ng/mL
  Human Plasma Levels Cmin: 820 ng/mL
[3]; Healthy Participants, IM (gluteal) injection 100 mg IM
  Human Plasma Levels Cmax: 200 ng/mL
[3]; Healthy Participants, IM (gluteal) injection 200 mg IM
  Human Plasma Levels Cmax: 300 ng/mL
[3]; Healthy Participants, IM (gluteal) injection 400 mg (200 mg × 2)
  Human Plasma Levels Cmax: 1400 ng/mL
[3]; Healthy Participants, IM (gluteal) injection 400 mg IM
  Human Plasma Levels Cmax: 700 ng/mL
[3]; Healthy Participants, IM (gluteal) injection 800 mg IM (400 mg × 2)
  Human Plasma Levels Cmax: 3300 ng/mL
[3]; Healthy Participants, SC (abdominal) injection 100 mg
  Human Plasma Levels Cmax: 200 ng/mL
[3]; Healthy Participants, SC (abdominal) injection 200 mg
  Human Plasma Levels Cmax: 500 ng/mL
[3]; Healthy Participants, SC (abdominal) injection 400 mg (200 mg × 2)
  Human Plasma Levels Cmax: 900 ng/mL
[3]; [26]
  Human Plasma Levels Cmax: 8300 ng/mL
  Human Plasma Levels Cmin: 4900 ng/mL
[3]; [27]
  Human Plasma Levels Cmax: 2200 ng/mL
  Human Plasma Levels Cmin: 1610 ng/mL
[3]; [28]
  Human Plasma Levels Cmax: 2100 ng/mL
  Human Plasma Levels Cmin: 1660 ng/mL
[3]; [29]
  Human Plasma Levels Cmax: 4400 ng/mL
  Human Plasma Levels Cmin: 3270 ng/mL
[3]; [30]
  Human Plasma Levels Cmax: 3300 ng/mL
  Human Plasma Levels Cmin: 1100 ng/mL
[3]; [31]
  Human Plasma Levels Cmax: 2080 ng/mL
  Human Plasma Levels Cmin: 1060 ng/mL
[3]; [32]
  Human Plasma Levels Cmax: 4290 ng/mL
  Human Plasma Levels Cmin: 2390 ng/mL
[3]; [33]
  Human Plasma Levels Cmax: 9470 ng/mL
  Human Plasma Levels Cmin: 5400 ng/mL
[3]; [34]
  Human Plasma Levels Cmax: 1150 ng/mL
  Human Plasma Levels Cmin: 420 ng/mL
[3]; [35]
  Human Plasma Levels Cmax: 2150 ng/mL
  Human Plasma Levels Cmin: 830 ng/mL
[3]; [36]
  Human Plasma Levels Cmax: 4380 ng/mL
  Human Plasma Levels Cmin: 1930 ng/mL
[3]; [37]
  Human Plasma Levels Cmax: 8570 ng/mL
  Human Plasma Levels Cmin: 3820 ng/mL
[3]; Participants with HIV, CAB/rilpivirine LA injectable, repeat-dose every 4 week 400 mg
  Human Plasma Levels Cmin: 2740 ng/mL
[3]; Participants with HIV, CAB/rilpivirine LA injectable, repeat-dose every 8 week 600 mg
  Human Plasma Levels Cmin: 1670 ng/mL
[3]; Participants with HIV, repeat oral dose 5 mg
  Human Plasma Levels Cmax: 1020 ng/mL
[3]; [38]
  Human Plasma Levels Cmax: 6370 ng/mL
  Human Plasma Levels Cmin: 3280 ng/mL
[3]; [39]
  Human Plasma Levels Cmax: 520 ng/mL
  Human Plasma Levels Cmin: 230 ng/mL
[3]; Participants with HIV, single oral dose 30 mg (Ctau)
  Human Plasma Levels Cmin: 1250 ng/mL
[3]; Participants with HIV, single oral dose 30 mg
  Human Plasma Levels Cmax: 2840 ng/mL
